Assays:
Assay in all cases: radiometric filter-binding kinase assay, Kinase HotSpot
Settings in all cases: compound 0.5 µM; ATP 10 µM
ACVRL1 (human) = ACVRL1 (human) (UniProt P37023)
AKT1 (human) = AKT1 (human) (UniProt P31749)
AURKB (human) = AURKB (human) (UniProt Q96GD4)
BRSK2 (human) = BRSK2 (human) (UniProt Q8IWQ3)
CAMK2G (human) = CAMK2G (human) (UniProt Q13555)
CAMKK2 (human) = CAMKK2 (human) (UniProt Q96RR4)
CDC42BPB (human) = CDC42BPB (human) (UniProt Q9Y5S2)
CDK1 CCNA2 (human) = CDK1 CCNA2 (human) (UniProt P06493+P20248)
CDK2 CCNE1 (human) = CDK2 CCNE1 (human) (UniProt P24941+P24864)
CDK4 CCND1 (human) = CDK4 CCND1 (human) (UniProt P24385+P11802)
CDK5 CDK5R1 p35 (human) = CDK5 CDK5R1 p35 (human) (UniProt Q00535+Q15078)
CHEK1 (human) = CHEK1 (human) (UniProt O14757)
DDR2 (human) = DDR2 (human) (UniProt Q16832)
FGFR4 (human) = FGFR4 (human) (UniProt P22455)
FLT3 (human) = FLT3 (human) (UniProt P36888)
GRK6 (human) = GRK6 (human) (UniProt P43250)
GSG2 (human) = GSG2 (human) (UniProt Q8TF76)
GSK3B (human) = GSK3B (human) (UniProt P49841)
HIPK2 (human) = HIPK2 (human) (UniProt Q9H2X6)
INSR (human) = INSR (human) (UniProt P06213)
IRAK1 (human) = IRAK1 (human) (UniProt P51617)
ITK (human) = ITK (human) (UniProt Q08881)
MAP2K1 (human) = MAP2K1 (human) (UniProt Q02750)
MAP3K10 (human) = MAP3K10 (human) (UniProt Q02779)
MAP3K2 (human) = MAP3K2 (human) (UniProt Q9Y2U5)
MAP3K9 (human) = MAP3K9 (human) (UniProt P80192)
MAPK11 (human) = MAPK11 (human) (UniProt Q15759)
MAPK14 (human) = MAPK14 (human) (UniProt Q16539)
MATK (human) = MATK (human) (UniProt P42679)
NEK11 (human) = NEK11 (human) (UniProt Q8NG66)
NLK (human) = NLK (human) (UniProt Q9UBE8)
PASK (human) = PASK (human) (UniProt Q96RG2)
PIM3 (human) = PIM3 (human) (UniProt Q86V86)
PLK1 (human) = PLK1 (human) (UniProt P53350)
RPS6KA5 KD2 (human) = RPS6KA5 KD2 (human) (UniProt O75582)
SRMS (human) = SRMS (human) (UniProt Q9H3Y6)
SRPK1 (human) = SRPK1 (human) (UniProt Q96SB4)
STK39 (human) = STK39 (human) (UniProt Q9UEW8)
STK4 (human) = STK4 (human) (UniProt Q13043)
TNK2 (human) = TNK2 (human) (UniProt Q07912)
TSSK1B (human) = TSSK1B (human) (UniProt Q9BXA7)
TXK (human) = TXK (human) (UniProt P42681)

Chain of NLK (human) (Q9UBE8 whole entry, looked up): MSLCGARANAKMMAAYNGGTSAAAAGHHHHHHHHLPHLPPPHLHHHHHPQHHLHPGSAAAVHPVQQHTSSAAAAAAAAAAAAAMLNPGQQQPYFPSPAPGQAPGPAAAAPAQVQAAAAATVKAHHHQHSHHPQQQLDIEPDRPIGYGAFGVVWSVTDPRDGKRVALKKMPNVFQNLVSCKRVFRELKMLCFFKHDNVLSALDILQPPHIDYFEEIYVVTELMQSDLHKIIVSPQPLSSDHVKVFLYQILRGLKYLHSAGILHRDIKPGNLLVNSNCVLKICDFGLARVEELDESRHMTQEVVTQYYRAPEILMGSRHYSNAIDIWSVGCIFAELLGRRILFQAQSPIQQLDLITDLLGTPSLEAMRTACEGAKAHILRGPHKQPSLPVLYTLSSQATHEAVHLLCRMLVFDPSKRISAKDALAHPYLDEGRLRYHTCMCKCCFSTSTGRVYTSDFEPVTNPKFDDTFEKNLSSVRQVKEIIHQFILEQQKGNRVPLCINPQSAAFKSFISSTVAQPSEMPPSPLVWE
Chain of BRSK2 (human) (Q8IWQ3 whole entry, looked up): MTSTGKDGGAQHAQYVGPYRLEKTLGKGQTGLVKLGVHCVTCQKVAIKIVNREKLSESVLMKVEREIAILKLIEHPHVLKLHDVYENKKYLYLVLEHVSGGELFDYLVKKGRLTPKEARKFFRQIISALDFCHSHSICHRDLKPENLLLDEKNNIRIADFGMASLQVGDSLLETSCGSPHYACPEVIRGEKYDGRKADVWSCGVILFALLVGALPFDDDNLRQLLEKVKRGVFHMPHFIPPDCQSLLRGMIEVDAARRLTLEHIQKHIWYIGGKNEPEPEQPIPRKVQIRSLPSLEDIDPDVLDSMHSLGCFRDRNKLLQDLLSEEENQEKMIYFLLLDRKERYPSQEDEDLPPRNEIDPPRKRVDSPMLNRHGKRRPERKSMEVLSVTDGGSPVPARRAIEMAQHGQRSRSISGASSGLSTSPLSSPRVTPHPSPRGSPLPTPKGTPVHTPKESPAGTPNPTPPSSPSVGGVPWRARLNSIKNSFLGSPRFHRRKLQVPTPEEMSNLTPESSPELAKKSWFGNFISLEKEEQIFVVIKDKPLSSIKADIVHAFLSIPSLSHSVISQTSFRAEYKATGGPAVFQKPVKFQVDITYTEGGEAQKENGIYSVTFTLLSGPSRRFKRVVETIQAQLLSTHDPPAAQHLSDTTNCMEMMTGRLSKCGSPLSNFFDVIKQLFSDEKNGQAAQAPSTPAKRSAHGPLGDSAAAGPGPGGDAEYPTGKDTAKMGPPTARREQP
Chain of CHEK1 (human) (O14757 whole entry, looked up): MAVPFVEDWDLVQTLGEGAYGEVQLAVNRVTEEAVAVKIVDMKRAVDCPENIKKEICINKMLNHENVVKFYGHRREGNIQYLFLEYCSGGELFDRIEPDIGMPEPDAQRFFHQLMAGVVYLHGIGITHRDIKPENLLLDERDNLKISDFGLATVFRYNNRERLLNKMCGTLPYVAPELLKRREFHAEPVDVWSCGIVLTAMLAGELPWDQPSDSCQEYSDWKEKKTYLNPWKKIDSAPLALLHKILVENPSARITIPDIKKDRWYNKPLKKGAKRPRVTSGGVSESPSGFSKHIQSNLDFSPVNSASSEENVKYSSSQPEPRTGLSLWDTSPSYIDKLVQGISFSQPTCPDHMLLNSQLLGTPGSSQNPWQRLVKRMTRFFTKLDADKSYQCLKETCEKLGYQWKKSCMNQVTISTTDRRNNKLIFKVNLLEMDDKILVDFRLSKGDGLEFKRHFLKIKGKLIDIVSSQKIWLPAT
Chain of RPS6KA5 KD2 (human) (O75582 whole entry, looked up): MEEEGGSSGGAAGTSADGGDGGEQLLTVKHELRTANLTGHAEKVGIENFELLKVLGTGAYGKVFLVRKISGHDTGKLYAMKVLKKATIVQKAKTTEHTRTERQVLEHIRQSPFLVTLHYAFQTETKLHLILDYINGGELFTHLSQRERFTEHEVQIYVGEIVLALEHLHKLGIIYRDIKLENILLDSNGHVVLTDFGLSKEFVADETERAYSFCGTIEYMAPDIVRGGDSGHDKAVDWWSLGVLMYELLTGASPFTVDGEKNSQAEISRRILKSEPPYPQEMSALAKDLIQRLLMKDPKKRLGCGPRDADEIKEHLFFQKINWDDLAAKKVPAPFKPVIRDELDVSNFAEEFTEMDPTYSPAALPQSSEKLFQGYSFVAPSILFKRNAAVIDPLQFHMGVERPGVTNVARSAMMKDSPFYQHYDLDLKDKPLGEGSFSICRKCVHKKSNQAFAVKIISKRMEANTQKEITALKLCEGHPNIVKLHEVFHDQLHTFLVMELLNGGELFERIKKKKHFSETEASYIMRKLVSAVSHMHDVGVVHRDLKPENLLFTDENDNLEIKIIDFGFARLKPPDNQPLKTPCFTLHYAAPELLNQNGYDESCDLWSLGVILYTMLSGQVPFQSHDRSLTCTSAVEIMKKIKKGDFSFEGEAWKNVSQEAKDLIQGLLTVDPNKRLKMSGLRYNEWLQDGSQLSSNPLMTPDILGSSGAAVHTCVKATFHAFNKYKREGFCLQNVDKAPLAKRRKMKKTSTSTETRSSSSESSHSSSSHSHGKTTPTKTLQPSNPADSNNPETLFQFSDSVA
Chain of GRK6 (human) (P43250 whole entry, looked up): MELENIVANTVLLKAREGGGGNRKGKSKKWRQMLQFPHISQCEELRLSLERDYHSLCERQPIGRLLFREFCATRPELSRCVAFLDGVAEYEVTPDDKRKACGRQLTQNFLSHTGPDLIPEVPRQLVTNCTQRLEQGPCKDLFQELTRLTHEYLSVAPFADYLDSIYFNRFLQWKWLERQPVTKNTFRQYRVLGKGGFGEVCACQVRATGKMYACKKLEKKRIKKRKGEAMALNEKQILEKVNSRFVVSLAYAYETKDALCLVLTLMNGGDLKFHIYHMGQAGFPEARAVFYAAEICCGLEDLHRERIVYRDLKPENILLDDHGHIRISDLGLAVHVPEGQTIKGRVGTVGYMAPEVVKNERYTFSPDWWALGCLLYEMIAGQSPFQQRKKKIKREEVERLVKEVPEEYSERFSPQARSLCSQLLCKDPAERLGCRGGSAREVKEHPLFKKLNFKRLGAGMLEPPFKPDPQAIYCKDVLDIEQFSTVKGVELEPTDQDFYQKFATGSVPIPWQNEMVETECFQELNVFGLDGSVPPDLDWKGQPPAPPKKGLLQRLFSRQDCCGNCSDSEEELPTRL
Chain of SRPK1 (human) (Q96SB4 whole entry, looked up): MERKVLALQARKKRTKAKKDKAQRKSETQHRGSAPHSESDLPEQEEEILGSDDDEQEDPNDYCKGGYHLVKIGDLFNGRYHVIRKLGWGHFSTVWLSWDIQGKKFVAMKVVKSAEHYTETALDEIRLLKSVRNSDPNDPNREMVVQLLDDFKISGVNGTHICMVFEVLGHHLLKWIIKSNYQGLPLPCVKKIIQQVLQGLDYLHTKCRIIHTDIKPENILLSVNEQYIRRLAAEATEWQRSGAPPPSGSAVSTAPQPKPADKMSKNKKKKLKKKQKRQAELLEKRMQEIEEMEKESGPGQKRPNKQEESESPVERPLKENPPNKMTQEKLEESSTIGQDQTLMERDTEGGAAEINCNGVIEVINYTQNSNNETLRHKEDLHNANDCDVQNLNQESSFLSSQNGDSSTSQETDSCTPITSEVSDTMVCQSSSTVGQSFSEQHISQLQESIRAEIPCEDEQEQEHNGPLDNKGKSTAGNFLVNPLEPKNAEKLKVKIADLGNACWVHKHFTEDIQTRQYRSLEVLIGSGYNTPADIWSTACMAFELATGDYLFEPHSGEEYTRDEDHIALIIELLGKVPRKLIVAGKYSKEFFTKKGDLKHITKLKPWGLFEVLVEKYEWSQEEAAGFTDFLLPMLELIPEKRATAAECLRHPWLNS
Chain of MAP3K10 (human) (Q02779 whole entry, looked up): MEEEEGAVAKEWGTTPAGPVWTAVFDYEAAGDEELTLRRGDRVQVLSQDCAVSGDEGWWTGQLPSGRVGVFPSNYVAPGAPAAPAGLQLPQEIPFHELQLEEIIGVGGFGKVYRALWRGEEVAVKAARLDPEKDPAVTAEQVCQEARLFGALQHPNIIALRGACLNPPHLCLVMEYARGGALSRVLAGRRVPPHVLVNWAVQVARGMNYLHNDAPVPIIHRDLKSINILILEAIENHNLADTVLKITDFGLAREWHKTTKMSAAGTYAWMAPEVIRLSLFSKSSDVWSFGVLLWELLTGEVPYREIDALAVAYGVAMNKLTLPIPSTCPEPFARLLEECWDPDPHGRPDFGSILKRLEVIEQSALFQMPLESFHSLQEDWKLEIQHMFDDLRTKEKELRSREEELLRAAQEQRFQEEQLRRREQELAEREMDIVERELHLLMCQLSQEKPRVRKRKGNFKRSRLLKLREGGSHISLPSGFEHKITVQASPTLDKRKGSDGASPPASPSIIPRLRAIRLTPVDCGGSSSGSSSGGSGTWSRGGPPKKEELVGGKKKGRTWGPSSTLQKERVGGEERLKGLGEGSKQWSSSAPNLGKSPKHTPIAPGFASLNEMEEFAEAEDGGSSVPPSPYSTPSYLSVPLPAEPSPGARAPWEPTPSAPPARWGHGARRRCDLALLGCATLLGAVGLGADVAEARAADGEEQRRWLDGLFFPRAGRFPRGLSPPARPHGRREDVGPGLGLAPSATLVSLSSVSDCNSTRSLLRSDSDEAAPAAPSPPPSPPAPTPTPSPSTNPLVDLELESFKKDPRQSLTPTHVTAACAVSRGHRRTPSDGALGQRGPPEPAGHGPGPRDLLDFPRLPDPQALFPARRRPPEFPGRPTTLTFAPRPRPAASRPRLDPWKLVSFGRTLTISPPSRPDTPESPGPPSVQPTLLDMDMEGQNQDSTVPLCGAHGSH

Compound: CC(C)[C@H](CO)Nc1nc(Nc2cccc(Cl)c2)c2ncn(C(C)C)c2n1
- residual activity (ACVRL1 (human)): 96.7%
- residual activity (AKT1 (human)): 102%
- residual activity (AURKB (human)): 97%
- residual activity (BRSK2 (human)): 97.8%
- residual activity (CAMK2G (human)): 96.9%
- residual activity (CAMKK2 (human)): 70.9%
- residual activity (CDC42BPB (human)): 108%
- residual activity (CDK1 CCNA2 (human)): 31.7%
- residual activity (CDK2 CCNE1 (human)): 9.88%
- residual activity (CDK4 CCND1 (human)): 83.4%
- residual activity (CDK5 CDK5R1 p35 (human)): 2.61%
- residual activity (CHEK1 (human)): 97.9%
- residual activity (DDR2 (human)): 99.1%
- residual activity (FGFR4 (human)): 79%
- residual activity (FLT3 (human)): 16.4%
- residual activity (GRK6 (human)): 98.3%
- residual activity (GSG2 (human)): 93.6%
- residual activity (GSK3B (human)): 103%
- residual activity (HIPK2 (human)): 86.3%
- residual activity (INSR (human)): 83%
- residual activity (IRAK1 (human)): 109%
- residual activity (ITK (human)): 86.9%
- residual activity (MAP2K1 (human)): 96%
- residual activity (MAP3K10 (human)): 98%
- residual activity (MAP3K2 (human)): 97.8%
- residual activity (MAP3K9 (human)): 37.8%
- residual activity (MAPK11 (human)): 109%
- residual activity (MAPK14 (human)): 99.4%
- residual activity (MATK (human)): 93.1%
- residual activity (NEK11 (human)): 67.1%
- residual activity (NLK (human)): 99.2%
- residual activity (PASK (human)): 93.1%
- residual activity (PIM3 (human)): 84.9%
- residual activity (PLK1 (human)): 89.2%
- residual activity (RPS6KA5 KD2 (human)): 100%
- residual activity (SRMS (human)): 104%
- residual activity (SRPK1 (human)): 77%
- residual activity (STK39 (human)): 99.2%
- residual activity (STK4 (human)): 87.7%
- residual activity (TNK2 (human)): 55.6%
- residual activity (TSSK1B (human)): 102%
- residual activity (TXK (human)): 54.1%

Compound: Cc1cc2ncc(-c3ccccc3)nc2cc1C
- residual activity (ACVRL1 (human)): 97.9%
- residual activity (AKT1 (human)): 101%
- residual activity (AURKB (human)): 85.4%
- residual activity (BRSK2 (human)): 102%
- residual activity (CAMK2G (human)): 105%
- residual activity (CAMKK2 (human)): 91.8%
- residual activity (CDC42BPB (human)): 101%
- residual activity (CDK1 CCNA2 (human)): 94.4%
- residual activity (CDK2 CCNE1 (human)): 91.8%
- residual activity (CDK4 CCND1 (human)): 101%
- residual activity (CDK5 CDK5R1 p35 (human)): 89.1%
- residual activity (CHEK1 (human)): 94.2%
- residual activity (DDR2 (human)): 95.7%
- residual activity (FGFR4 (human)): 77.2%
- residual activity (FLT3 (human)): 53.6%
- residual activity (GRK6 (human)): 103%
- residual activity (GSG2 (human)): 91.5%
- residual activity (GSK3B (human)): 79.5%
- residual activity (HIPK2 (human)): 97%
- residual activity (INSR (human)): 94%
- residual activity (IRAK1 (human)): 114%
- residual activity (ITK (human)): 100%
- residual activity (MAP2K1 (human)): 98%
- residual activity (MAP3K10 (human)): 97.8%
- residual activity (MAP3K2 (human)): 105%
- residual activity (MAP3K9 (human)): 92.6%
- residual activity (MAPK11 (human)): 96.8%
- residual activity (MAPK14 (human)): 103%
- residual activity (MATK (human)): 95.4%
- residual activity (NEK11 (human)): 104%
- residual activity (NLK (human)): 92.8%
- residual activity (PASK (human)): 82.1%
- residual activity (PIM3 (human)): 103%
- residual activity (PLK1 (human)): 101%
- residual activity (RPS6KA5 KD2 (human)): 96.4%
- residual activity (SRMS (human)): 93.5%
- residual activity (SRPK1 (human)): 103%
- residual activity (STK39 (human)): 103%
- residual activity (STK4 (human)): 98.6%
- residual activity (TNK2 (human)): 98.4%
- residual activity (TSSK1B (human)): 113%
- residual activity (TXK (human)): 99.5%

From the kinase profiling compilation of Christmann-Franck et al. (2016)
